These results are taken from patent publication US7122673B2, “Preparation of fused polycyclic alkaloids by ring closure of azomethine ylides, novel compounds thereof and their use as chemotherapeutic agents” (The Australian National University, priority 1997, dated 2006).

Data set [1] has as its system fertilised sea urchin. The note with it: fertilised sea urchin assay; background statement; cited from earlier work.
Data set [2] deals with P388 cell lines. The note with it: cell line in culture; background statement; cited from earlier work.
The subject of data set [3] is A549 cell lines. The conditions noted are these: cell line in culture; background statement; cited from earlier work.
The subject of data set [4] is lung cancer cell lines. The conditions noted are these: acting as a Type IV microtubule poison; background statement; cited from earlier work.

In turn, `COc1cc(-c2c3n(c4c(=O)oc5cc(O)c(OC)cc5c24)CCc2cc(OC)c(OC)cc2-3)ccc1O` [Compound 35, 10-Deoxylamellarin K] had a melting point of 292 to 294 °C.

On to `COc1cc(-c2c3n(c4c(=O)oc5cc(O)c(OC)cc5c24)CCc2c-3cc(OC)c(OC)c2OC)ccc1O` [Lamellarin C], for which the “inhibition of cell division” value in data set [1] is given as “inhibition of cell division”.

As to `COc1cc(-c2c3c4cc(OC)c(O)cc4oc(=O)c3n3ccc4cc(O)c(OC)cc4c23)ccc1O` [Lamellarin D], in data set [1], the “inhibition of cell division” value was “inhibition of cell division”.

Regarding `COc1ccc(-c2c3n(c4c(=O)oc5cc(O)c(OC)cc5c24)CCc2cc(O)c(OC)cc2-3)cc1O` [Lamellarin L], in data set [2], the “cytotoxicity against P388” value is “comparable and significant cytotoxicity”. Also, in data set [3], the “cytotoxicity against A549” value is “comparable and significant cytotoxicity”.

As for `COc1ccc(-c2c3c4cc(OC)c(O)cc4oc(=O)c3n3ccc4cc(O)c(OC)cc4c23)cc1O` [Lamellarin N], the “activity in lung cancer cell lines” value in data set [4] was “exhibit activity”.

For Lamellarin I, in data set [2], the “cytotoxicity against P388” value was “comparable and significant cytotoxicity”. For the same molecule, the “cytotoxicity against A549” value in data set [3] is “comparable and significant cytotoxicity”.

With Lamellarin K, the “cytotoxicity against P388” value in data set [2] was “comparable and significant cytotoxicity”. For the same molecule, the “cytotoxicity against A549” value in data set [3] was “comparable and significant cytotoxicity”.

In general, melting point refers to the temperature of the solid-liquid transition.
